In patent US11447465B2, “Pharmaceutical compounds for treatment of medical disorders” (Achillion Pharmaceuticals, Inc., priority 2017, dated 2022):

Each molecule was assayed against Human Factor D (Homo sapiens (Human), UniProt P00746) (assay: Human Factor D Assay). Conditions: Table 7; read-out: IC5 (Stars).
Chain of Human Factor D (P00746 26-253): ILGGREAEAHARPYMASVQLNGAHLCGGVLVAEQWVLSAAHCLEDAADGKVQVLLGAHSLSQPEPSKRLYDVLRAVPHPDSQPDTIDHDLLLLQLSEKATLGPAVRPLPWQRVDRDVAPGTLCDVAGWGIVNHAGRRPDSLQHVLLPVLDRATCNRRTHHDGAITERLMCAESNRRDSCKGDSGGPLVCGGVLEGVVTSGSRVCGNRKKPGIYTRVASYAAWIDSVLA
Type: biochemical
Outline: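 Serum-purified human factor D (80 nM final) preincubated with compound 5 min at room temperature in 50 mM Tris, 1 M NaCl, pH 7.5. Z-L-Lys-SBzl and DTNB added at 100 μM each; A405 followed every 30 s for 30 min. IC50 by nonlinear regression of rates.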
In the case of `CC(=O)c1cc(CC(=O)N2C[C@H](F)C[C@H]2C(=O)Nc2cccc(Br)n2)cc(-c2cnc(C)nc2)c1` [Compound T-105, (2S,4R)-1-(2-(3-acetyl-5-(2-methylpyrimidin-5-yl)phenyl)acetyl)-N-(6-bromopyridin-2-yl)-4-fluoropyrrolidine-2-carboxamide], the IC50 is reported as under 1000 nM.
Work on `CC(=O)c1cc(CC(=O)N2[C@H](C(=O)Nc3nc(Br)ccc3C)C[C@@]3(C)C[C@@H]23)cc(-c2cnc(C)nc2)c1` [Compound T-106, (1R,3S,5R)-2-(2-(3-acetyl-5-(2-methylpyrimidin-5-yl)phenyl)acetyl)-N-(6-bromo-3-methylpyridin-2-yl)-5-methyl-2-azabicyclo[3.1.0]hexane-3-carboxamide] yielded an IC50 of under 1000 nM.
Work on `CC(=O)c1cc(CC(=O)N2C[C@H](F)C[C@H]2C(=O)Nc2cccc(-c3ccccc3Cl)c2F)cc(-c2cnc(C)nc2)c1` [Compound T-107, (2S,4R)-1-(2-(3-acetyl-5-(2-methylpyrimidin-5-yl)phenyl)acetyl)-N-(2′-chloro-2-fluoro-[1,1′-biphenyl]-3-yl)-4-fluoropyrrolidine-2-carboxamide] yielded an IC50 of under 1000 nM.
`COc1ncc(-c2cc(CC(=O)N3C[C@H](F)C[C@H]3C(=O)Nc3cccc(Br)n3)cc(-c3cnc(OC)nc3)c2)cn1` [Compound T-108, (2S,4R)-1-(2-(3,5-bis(2-methoxypyrimidin-5-yl)phenyl)acetyl)-N-(6-bromopyridin-2-yl)-4-fluoropyrrolidine-2-carboxamide] showed an IC50 of over 10000 nM.
`COc1ncc(-c2cc(CC(=O)N3[C@H](C(=O)Nc4nc(Br)ccc4C)C[C@@]4(C)C[C@@H]34)cc(-c3cnc(OC)nc3)c2)cn1` [Compound T-109, (1R,3S,5R)-2-(2-(3,5-bis(2-methoxypyrimidin-5-yl)phenyl)acetyl)-N-(6-bromo-3-methylpyridin-2-yl)-5-methyl-2-azabicyclo[3.1.0]hexane-3-carboxamide] was tested, and the IC50 was over 10000 nM.
`COc1ncc(-c2cc(CC(=O)N3C[C@H](F)C[C@H]3C(=O)Nc3cccc(-c4ccccc4Cl)c3F)cc(-c3cnc(OC)nc3)c2)cn1` [Compound T-110, (2S,4R)-1-(2-(3,5-bis(2-methoxypyrimidin-5-yl)phenyl)acetyl)-N-(2′-chloro-2-fluoro-[1,1′-biphenyl]-3-yl)-4-fluoropyrrolidine-2-carboxamide] was tested, and the IC50 was over 10000 nM.
For `Cc1ncc(-c2cc(CC(=O)N3C[C@H](F)C[C@H]3C(=O)Nc3cccc(Br)n3)cc(C(N)=O)c2)cn1` [Compound T-111, (2S,4R)-N-(6-bromopyridin-2-yl)-1-(2-(3-carbamoyl-5-(2-methylpyrimidin-5-yl)phenyl)acetyl)-4-fluoropyrrolidine-2-carboxamide], the IC50 was 1000 to 10000 nM.
Work on `Cc1ncc(-c2cc(CC(=O)N3C[C@H](F)C[C@H]3C(=O)Nc3cccc(-c4ccccc4Cl)c3F)cc(C(N)=O)c2)cn1` [Compound T-112, (2S,4R)-1-(2-(3-carbamoyl-5-(2-methylpyrimidin-5-yl)phenyl)acetyl)-N-(2′-chloro-2-fluoro-[1,1′-biphenyl]-3-yl)-4-fluoropyrrolidine-2-carboxamide] yielded an IC50 of under 1000 nM.
`Cc1ncc(-c2cc(CC(=O)N3[C@H](C(=O)Nc4nc(Br)ccc4C)C[C@@]4(C)C[C@@H]34)cc(C(N)=O)c2)cn1` [Compound T-113, (1R,3S,5R)-N-(6-bromo-3-methylpyridin-2-yl)-2-(2-(3-carbamoyl-5-(2-methylpyrimidin-5-yl)phenyl)acetyl)-5-methyl-2-azabicyclo[3.1.0]hexane-3-carboxamide] was tested, and the IC50 was 1000 to 10000 nM.
`Cc1ncc(-c2cc(C#N)cc(CC(=O)N3C[C@H](F)C[C@H]3C(=O)Nc3cccc(Br)n3)c2)cn1` [Compound T-114, (2S,4R)-N-(6-bromopyridin-2-yl)-1-(2-(3-cyano-5-(2-methylpyrimidin-5-yl)phenyl)acetyl)-4-fluoropyrrolidine-2-carboxamide] was tested, and the IC50 was 1000 to 10000 nM.
`Cc1ncc(-c2cc(C#N)cc(CC(=O)N3[C@H](C(=O)Nc4nc(Br)ccc4C)C[C@@]4(C)C[C@@H]34)c2)cn1` [Compound T-115, (1R,3S,5R)-N-(6-bromo-3-methylpyridin-2-yl)-2-(2-(3-cyano-5-(2-methylpyrimidin-5-yl)phenyl)acetyl)-5-methyl-2-azabicyclo[3.1.0]hexane-3-carboxamide] showed an IC50 of 1000 to 10000 nM.
Work on `Cc1ncc(-c2cc(C#N)cc(CC(=O)N3C[C@H](F)C[C@H]3C(=O)Nc3cccc(-c4ccccc4Cl)c3F)c2)cn1` [Compound T-116, (2S,4R)-N-(2′-chloro-2-fluoro-[1,1′-biphenyl]-3-yl)-1-(2-(3-cyano-5-(2-methylpyrimidin-5-yl)phenyl)acetyl)-4-fluoropyrrolidine-2-carboxamide] yielded an IC50 of under 1000 nM.
`Cc1ncc(-c2cc(CC(=O)N3[C@H](C(=O)Nc4nc(Br)ccc4C)C[C@@]4(C)C[C@@H]34)cc(-c3cnc(O)nc3)c2)cn1` [Compound T-117, (1R,3S,5R)-N-(6-bromo-3-methylpyridin-2-yl)-2-(2-(3-(2-hydroxypyrimidin-5-yl)-5-(2-methylpyrimidin-5-yl)phenyl)acetyl)-5-methyl-2-azabicyclo[3.1.0]hexane-3-carboxamide] gave an IC50 of over 10000 nM.
Molecule `Cc1ncc(-c2cc(CC(=O)N3C[C@H](F)C[C@H]3C(=O)Nc3cccc(-c4ccccc4Cl)c3F)cc(-c3cnc(O)nc3)c2)cn1` [Compound T-118, (2S,4R)-N-(2′-chloro-2-fluoro-[1,1′-biphenyl]-3-yl)-4-fluoro-1-(2-(3-(2-hydroxypyrimidin-5-yl)-5-(2-methylpyrimidin-5-yl)phenyl)acetyl)pyrrolidine-2-carboxamide] has an IC50 of over 10000 nM.
With `Cc1ncc(-c2cc(CC(=O)N3C[C@H](F)C[C@H]3C(=O)Nc3cccc(-c4ccccc4Cl)c3F)cc(OCC(=O)O)c2)cn1` [Compound T-120, 2-(3-(2-((2S,4R)-2-((2′-chloro-2-fluoro-[1,1′-biphenyl]-3-yl)carbamoyl)-4-fluoropyrrolidin-1-yl)-2-oxoethyl)-5-(2-methylpyrimidin-5-yl)phenoxy)acetic acid] the IC50 was 1000 to 10000 nM.
`C#CCNC(=O)c1nn(CC(=O)N2[C@H](C(=O)Nc3nc(Br)ccc3C)C[C@@]3(C)C[C@@H]23)c2ccc(-c3cnc(C)nc3)cc12` [Compound T-121, 1-(2-((1R,3S,5R)-3-((6-bromo-3-methylpyridin-2-yl)carbamoyl)-5-methyl-2-azabicyclo[3.1.0]hexan-2-yl)-2-oxoethyl)-5-(2-methylpyrimidin-5-yl)-N-(prop-2-yn-1-yl)-1H-indazole-3-carboxamide] showed an IC50 of under 1000 nM.
`Cc1ccc(Br)nc1NC(=O)[C@@H]1C[C@@]2(CNC(=O)COCCOCCNC(=O)COCCOCCNC(=O)CC[C@H](NC(=O)CCCCCCCCCCCCCCCCC(=O)O)C(=O)O)C[C@H]2N1C(=O)Cn1nc(C(N)=O)c2ccc(C(=O)NS(=O)(=O)C3CC3)cc21` [Compound T-126, (S)-1-((1R,3S,5R)-3-((6-bromo-3-methylpyridin-2-yl)carbamoyl)-2-(2-(3-carbamoyl-6-((cyclopropylsulfonyl)carbamoyl)-1H-indazol-1-yl)acetyl)-2-azabicyclo[3.1.0]hexan-5-yl)-24-carboxy-3,12,21,26-tetraoxo-5,8,14,17-tetraoxa-2,11,20,25-tetraazatritetracontan-43-oic acid] showed an IC50 of under 1000 nM.
In the case of `CC(=O)c1nn(CC(=O)N2[C@H](C(=O)Nc3nc(Br)ccc3C)C[C@@]3(CNC(=O)COCCOCCNC(=O)COCCOCCNC(=O)CCCCCCCCCCCCCCCCC(=O)O)C[C@@H]23)c2ccc(OC(=O)NC3CC3)cc12` [Compound T-128, 1-((1R,3S,5R)-2-(2-(3-acetyl-5-((cyclopropylcarbamoyl)oxy)-1H-indazol-1-yl)acetyl)-3-((6-bromo-3-methylpyridin-2-yl)carbamoyl)-2-azabicyclo[3.1.0]hexan-5-yl)-3,12,21-trioxo-5,8,14,17-tetraoxa-2,11,20-triazaoctatriacontan-38-oic acid], the IC50 is reported as under 1000 nM.
Molecule `COC(=O)c1cc2c(cc1-c1cnc(C)nc1)c(C(C)=O)nn2CC(=O)N1[C@H](C(=O)Nc2nc(Br)ccc2C)C[C@@]2(C)C[C@@H]12` [Compound T-129, methyl 3-acetyl-1-(2-((1R,3S,5R)-3-((6-bromo-3-methylpyridin-2-yl)carbamoyl)-5-methyl-2-azabicyclo[3.1.0]hexan-2-yl)-2-oxoethyl)-5-(2-methylpyrimidin-5-yl)-1H-indazole-6-carboxylate] has an IC50 of under 1000 nM.
`CC(=O)c1nn(CC(=O)N2C[C@H](F)C[C@H]2C(=O)Nc2nc(Br)ccc2C)c2cc(OCP(=O)(O)O)ccc12` [Compound T-130, (((3-acetyl-1-(2-((2S,4R)-2-((6-bromo-3-methylpyridin-2-yl)carbamoyl)-4-fluoropyrrolidin-1-yl)-2-oxoethyl)-1H-indazol-6-yl)oxy)methyl)phosphonic acid] showed an IC50 of under 1000 nM.
Work on `CC(=O)c1nn(CC(=O)N2C[C@H](F)C[C@H]2C(=O)NCc2cccc(Cl)c2F)c2cc(OCP(=O)(O)O)ccc12` [Compound T-131, (((3-acetyl-1-(2-((2S,4R)-2-((3-chloro-2-fluorobenzyl)carbamoyl)-4-fluoropyrrolidin-1-yl)-2-oxoethyl)-1H-indazol-6-yl)oxy)methyl)phosphonic acid] yielded an IC50 of under 1000 nM.
For `CC(=O)c1nn(CC(=O)N2[C@H](C(=O)Nc3nc(Br)ccc3C)C[C@@]3(C)C[C@@H]23)c2cc(OCP(=O)(O)O)ccc12` [Compound T-132, (((3-acetyl-1-(2-((1R,3S,5R)-3-((6-bromo-3-methylpyridin-2-yl)carbamoyl)-5-methyl-2-azabicyclo[3.1.0]hexan-2-yl)-2-oxoethyl)-1H-indazol-6-yl)oxy)methyl)phosphonic acid], the IC50 was under 1000 nM.
For `CC(=O)c1nn(CC(=O)N2C(C(=O)Nc3nc(Br)ccc3C)C[C@@]3(Cn4cc(C5CC5)nn4)C[C@@H]23)c2cnccc12` (stereo partly drawn) [Compound T-139, (1R,3S,5R)-2-(2-(3-acetyl-1H-pyrazolo[3,4-c]pyridin-1-yl)acetyl)-N-(6-bromo-3-methylpyridin-2-yl)-5-((4-cyclopropyl-1H-1,2,3-triazol-1-yl)methyl)-2-azabicyclo[3.1.0]hexane-3-carboxamide], the IC50 was under 1000 nM.
